In US20220348590A1, “CYCLOOXYGENASE-2 INHIBITORS AND USES THEREOF” (The Board Institute, Inc., priority 2019, published 2022):
Like-named read-outs stand apart in the source and are kept apart here.

Legend:
[1] = rat plasma protein binding (PPB) assay; type: in vitro ADME; conditions: average, read-out: Rat Plasma Protein Binding % Bound Avg (converted)
Experimental: We have adapted a previously reported cyclooxygenase enzymatic assay utilizing LCMS quantification of PGE2 as the product of COX-1 and COX2 catalyzed conversion of arachidonic acid to evaluate the binding properties of newly synthesized ligands [Cao, 2011]. These optimized and miniaturized (384-well plates) LCMS-based COX-1 and COX2 enzymatic assays enabled us to quickly evaluate newly synthesized ligands for COX2 binding affinity and selectivity vs COX-1. Using a shorter ligand-enzyme incubation time in the LCMS assay (2 minutes vs 10 minutes) also permitted us to prioritize ligands with faster binding kinetics. Considering the relatively slow on-rate kinetics of known coxibs, due to their 3-step binding mechanism [Marnett, 2009], we believe that optimizing this critical parameter will be key to the successful development of a COX2 PET tracer. Using these enzymatic assays, we have evaluated>200 newly synthesized ligands against COX2 and >20 ligands against COX-1. Another critical property necessary for a good PET radiotracer is to have low non-specific binding (NSB) to increase the free fraction and maximize the signal to noise ratio. This property can be evaluated using in-vitro protein binding assays, and we have now evaluated>50 newly synthesized ligands in mouse, rat and human plasma protein binding (PPB) assays as well as >15 ligands in a mouse brain protein binding (BPB) assay.

[2] = target: T1, ovine COX-1 (oCOX-1) (Ovis aries, UniProt P05979); assay: LCMS-based COX-1 enzymatic inhibition assay (PGE2 quantification); type: biochemical
T1 construct: purchased Cayman Chemicals (Ann Arbor, Mich.)
T1 sequence (P05979 25-600): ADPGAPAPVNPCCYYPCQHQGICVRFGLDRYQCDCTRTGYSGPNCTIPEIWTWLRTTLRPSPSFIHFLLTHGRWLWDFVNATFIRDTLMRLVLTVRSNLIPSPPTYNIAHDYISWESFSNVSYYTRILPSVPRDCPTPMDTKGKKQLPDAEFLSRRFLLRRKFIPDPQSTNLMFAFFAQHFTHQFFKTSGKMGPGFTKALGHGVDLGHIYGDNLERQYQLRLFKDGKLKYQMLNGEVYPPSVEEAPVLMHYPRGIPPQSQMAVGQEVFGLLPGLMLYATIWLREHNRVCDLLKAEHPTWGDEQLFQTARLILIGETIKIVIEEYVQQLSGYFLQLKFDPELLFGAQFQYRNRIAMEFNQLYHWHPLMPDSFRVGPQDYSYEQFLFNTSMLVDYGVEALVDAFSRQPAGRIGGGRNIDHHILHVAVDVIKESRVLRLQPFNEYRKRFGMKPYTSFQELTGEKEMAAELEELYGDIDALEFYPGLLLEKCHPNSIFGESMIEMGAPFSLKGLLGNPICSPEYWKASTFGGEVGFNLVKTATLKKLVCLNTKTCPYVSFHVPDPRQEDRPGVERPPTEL
How it was run: (§1)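 PGE2 formed from arachidonic acid (final 5 μM, 2 min) was measured by LC-MS-MS against DMSO controls. Enzyme (oCOX-1 0.1 μg or hCOX2 0.2 μg) with hematin/epinephrine cofactors at pH 8.0 was given 10 min at 37 °C with compound first. Twelve-point curves run three times gave IC50.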

[3] = Rat Plasma Protein Stability (% Remaining); type: in vitro ADME; conditions: average
[4] = target: T2, human recombinant COX2 (hCOX2) (UniProt P35354); assay: LCMS-based COX2 enzymatic inhibition assay (PGE2 quantification); type: biochemical; set-up: COX2 2 minutes pge2/pge2d4 area ratio Avg; other: 2 minutes; readout pge2/pge2d4 area ratio; average; COX2 2 minutes pge2/pge2d4 area ratio Avg; LLE; average LLE; COX2 2 minutes pge2 area (counts) Avg; readout pge2 area (counts); other: 2 min; "ovine COX2 (oCOX2), human recombinant COX2 (hCOX2)"; conditions: for IC50: average
T2 sequence (P35354 1-604): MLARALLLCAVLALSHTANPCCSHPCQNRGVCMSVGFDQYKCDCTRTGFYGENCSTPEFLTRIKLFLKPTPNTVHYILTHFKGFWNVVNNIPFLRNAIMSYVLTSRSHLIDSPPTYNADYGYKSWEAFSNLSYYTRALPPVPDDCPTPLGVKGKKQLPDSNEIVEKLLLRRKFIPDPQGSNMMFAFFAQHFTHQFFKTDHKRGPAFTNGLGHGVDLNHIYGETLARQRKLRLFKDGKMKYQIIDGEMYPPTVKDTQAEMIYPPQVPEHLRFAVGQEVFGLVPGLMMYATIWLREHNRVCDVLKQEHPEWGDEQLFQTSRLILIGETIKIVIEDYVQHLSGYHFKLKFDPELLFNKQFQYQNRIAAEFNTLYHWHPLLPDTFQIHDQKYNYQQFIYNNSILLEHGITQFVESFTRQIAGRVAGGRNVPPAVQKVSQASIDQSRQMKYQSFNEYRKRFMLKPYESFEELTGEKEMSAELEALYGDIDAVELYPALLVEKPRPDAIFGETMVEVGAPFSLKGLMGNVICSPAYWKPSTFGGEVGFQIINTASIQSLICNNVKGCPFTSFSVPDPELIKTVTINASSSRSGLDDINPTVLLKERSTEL
How it was run: as §1

[5] = Human Microsome Stability; type: in vitro ADME; conditions: human microsomes
[6] = Mouse Plasma Protein Stability (% Remaining); type: in vitro ADME; conditions: average
[7] = 10 minutes, readout pge2/pge2d4 area ratio, average LLE
[8] = 10 minutes, readout pge2 area (counts), average LLE
[9] = 2 minutes, readout pge2/pge2d4 area ratio, average LLE
[10] = 2 minutes, readout pge2/pge2d4 area ratio, read-out: COX2 2 minutes pge2/pge2d4 area ratio Avg. IC50
[11] = 2 minutes, readout pge2 area (counts), average LLE
[12] = 2 minutes, readout pge2 area (counts), read-out: COX2 2 minutes pge2 area (counts) Avg. IC50
[13] = 10 minutes, pge2/pge2d4 area ratio, head of this section not shown, inferred
[14] = 10 minutes, pge2 area (counts), head of this section not shown, inferred
[15] = 10 minutes, pge2 area (counts), head of this section not shown, inferred, read-out: COX1 10 minutes pge2 area (counts) Avg. IC50
[16] = 10 minutes, readout pge2 area (counts), average, read-out: COX1 10 minutes pge2 area (counts) Avg. IC50
[17] = 10 minutes, readout pge2/pge2d4 area ratio, average, read-out: COX1 10 minutes pge2/pge2d4 area ratio Avg. IC50

SMILES | fraction unbound [1] | IC50 [2] | COX1 10 minutes pge2/pge2d4 area ratio Avg. LLE [2, 7] | COX1 10 minutes pge2 area (counts) Avg. LLE [2, 8] | Rat Plasma Protein Stability % Remaining Avg [3] | COX2 2 minutes pge2/pge2d4 area ratio Avg. LLE [4, 9] | IC50 [4, 10] | COX2 2 minutes pge2 area (counts) Avg. LLE [4, 11] | IC50 [4, 12] | Human Microsome Stability % Remaining Avg [5] | COX1 10 minutes pge2/pge2d4 area ratio Avg. LLE [2, 13] | COX1 10 minutes pge2 area (counts) Avg. LLE [2, 14] | IC50 [2, 15] | IC50 [2, 16] | IC50 [2, 17] | COX2 10 minutes pge2 area (counts) Avg. LLE [4, 8] | IC50 ([4]; 10 minutes, readout pge2 area (counts), read-out: COX2 10 minutes pge2 area (counts) Avg. IC50) | Mouse Plasma Protein Stability % Remaining Avg [6]
CS(=O)(=O)c1ccc(-c2cccc(OCc3ccco3)n2)cc1 [Compound 28] | 0.025 | 52000 nM | 1.104 | 1.104 | 102.8% | 4.722 | 13.6 nM | 4.78 | 12.6 nM | 15% | – | – | – | – | – | – | – | –
Cc1cc(CNc2cccc(-c3ccc(S(C)(=O)=O)cc3)n2)co1 [Compound 27] | 0.037 | 52000 nM | 1.134 | 1.134 | 99.7% | 4.789 | 13.3 nM | 4.853 | 10.9 nM | 8.8% | – | – | – | – | – | – | – | –
CS(=O)(=O)c1ccc(-c2cccc(NCc3cccs3)n2)cn1 [Compound 59] | – | 52000 nM | – | – | – | 5.112 | 32 nM | 5.062 | 42.6 nM | 28% | 1.754 | 1.754 | – | – | – | – | – | –
CS(=O)(=O)c1ccc(-c2nc(NCc3ccco3)ccc2F)cc1 [Compound 218] | – | – | – | – | – | 3.092 | 1610 nM | 3.132 | 1720 nM | 15% | – | – | – | – | – | – | – | –
CS(=O)(=O)c1ccc(-c2cccc(NCc3ccc(F)cc3)n2)cc1 [Compound 13] | 0.021 | – | – | – | 101% | 4.5476 | 8.78 nM | 4.59 | 8.19 nM | 62% | – | – | – | – | – | – | – | –
CS(=O)(=O)c1ccc(-n2ccc3ccc(NCc4ccoc4)nc32)cc1 [Compound 83] | – | 52000 nM | – | – | – | 3.241 | 57.9 nM | 3.278 | 53.5 nM | – | 0.284 | – | – | – | – | – | – | –
C[S+]([O-])c1ccc(-c2cncc(NCc3cccs3)n2)cc1 (stereo not shown) [Compound 129] | – | – | – | – | – | 5.405 | 152 nM | 5.443 | 141 nM | – | – | 2.83 | 50200 nM | – | – | – | – | –
CS(=O)(=O)c1ccc(-c2cccc(/C=C\c3cccs3)n2)cc1 [Compound 41] | 0.021 | 52000 nM | 0.234 | 0.2543 | 100% | 3.735 | 19 nM | 3.716 | 21.7 nM | – | – | – | – | 49600 nM | – | – | – | –
COc1ncc(NCc2ccccc2)nc1-c1ccc(S(C)(=O)=O)cc1 [Compound 49] | – | 52000 nM | 1.734 | 1.734 | – | 5.235 | 22.2 nM | 5.228 | 21 nM | – | – | – | – | – | – | – | – | –
COc1cc(-c2ccc(S(C)(=O)=O)cc2)cc(NCc2cccs2)n1 [Compound 54] | – | – | 0.5171 | 0.394 | – | 3.727 | 25.5 nM | 3.7767 | 23.8 nM | – | – | – | – | 52000 nM | 39200 nM | 4.182 | 9.43 nM | –
CSc1ccc(-c2cncc(NCc3cccs3)n2)cc1 [Compound 84] | – | – | – | – | – | 3.898 | 58 nM | 4.023 | 52.5 nM | – | – | 2.207 | 1790 nM | – | – | – | – | –
COc1ncc(OCc2cccs2)nc1-c1ccc(S(C)(=O)=O)cc1 [Compound 8] | – | – | – | – | – | 5.399 | 6.59 nM | 5.446 | 7.15 nM | – | – | – | – | – | – | – | – | 92.8%
Cc1csc(COc2cncc(-c3ccc(S(C)(=O)=O)cc3)n2)c1 [Compound 10] | – | – | 2.513 | 2.529 | – | 5.4246 | 8.12 nM | 5.349 | 9.54 nM | – | – | – | – | 5640 nM | 5850 nM | – | – | –
CS(=O)(=O)c1ccc(-c2ccc(F)c(OCc3cccs3)n2)cc1 [Compound 45] | – | – | 1.328 | 1.301 | – | 3.877 | 20 nM | 3.805 | 23.2 nM | – | – | – | – | 7060 nM | 6640 nM | – | – | –
CSc1ccc(-c2cncc(OCc3cccs3)n2)cc1 [Compound 253] | – | – | – | – | – | 1.5751 | 3760 nM | 1.45 | 4840 nM | – | – | 0.8637 | 19300 nM | – | – | – | – | –
